Some test systems named below: K-562 leukemia; U251 CNS; HOP-62 NSCLC; HS 578T breast; MDA-MB-435; T-47D breast; NCI-H460 lung; SR leukemia; CCRF-CEM leukemia; SF-539 CNS.
Common to all, as to experiment: NCI anticancer screen, dose series, 48 h

From PubChem BioAssay (NCI) come the findings set out here.

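Compound exposure: 48 hours, 5 concentrations, 96-well plates. GI50 marks 50% less growth. TGI is the concentration that stops growth completely.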

As to `COc1ccc2[nH]c3cc4c(=O)c5cc(OC)ccc5[nH]c4cc3c(=O)c2c1`, the TGI in the assay with K-562 leukemia, in the assay on U251 CNS, in the assay on HOP-62 NSCLC, in the assay with HS 578T breast, with MDA-MB-435 and with T-47D breast was above 100 µM each time. In addition, the TGI in the assay with NCI-H460 lung and in the assay on SR leukemia was above 100 µM in each case.

Take `Cc1ccc(C2(O)c3ccccc3C(=O)N(C)C2(O)c2ccc(C)cc2)cc1` (stereo not given): the TGI with K-562 leukemia was above 100 µM; in the assay on U251 CNS, 40.1 µM; with HOP-62 NSCLC, 49.5 µM; in the assay on HS 578T breast, 46.9 µM; with MDA-MB-435, above 100 µM; in the assay with CCRF-CEM leukemia, 39.3 µM. Also, the TGI is above 100 µM with SF-539 CNS, above 100 µM with T-47D breast, 75.8 µM in the assay on NCI-H460 lung and 13.2 µM in the assay on SR leukemia.

In the case of `CC(=O)Nc1ccc(NC(=O)CC(=O)Nc2ccc(NC(C)=O)cc2)cc1`, the TGI in the assay with K-562 leukemia, with U251 CNS, in the assay with HS 578T breast, with MDA-MB-435, in the assay with CCRF-CEM leukemia and in the assay on SF-539 CNS was above 100 µM each time. In addition, the TGI with T-47D breast, in the assay on NCI-H460 lung and in the assay on SR leukemia was above 100 µM throughout.

In the case of `CN(C(=O)[C@H](NC(=O)OCc1ccccc1)c1ccccc1)C1CCCCC1N1CCCC1` (stereo not given in full), the TGI in the assay with K-562 leukemia is above 100 µM; in the assay with U251 CNS it was above 100 µM; in the assay on HOP-62 NSCLC, above 100 µM; in the assay with HS 578T breast it was 77.2 µM; with MDA-MB-435 it was above 100 µM; in the assay with CCRF-CEM leukemia it was above 100 µM. Besides, the values for the TGI in the assay with T-47D breast, in the assay with NCI-H460 lung and in the assay on SR leukemia were above 100 µM, above 100 µM and 87.6 µM, respectively.

As to `CC(=O)O[C@@H]1[C@H](OC2CCCCC2(c2ccccc2)c2ccccc2)O[N+]([O-])=CC12CCCCC2` (stereo not given in full), the TGI is above 100 µM with K-562 leukemia; 30.7 µM in the assay on U251 CNS; 43.3 µM with HS 578T breast; 29.2 µM with MDA-MB-435; 15.7 µM with CCRF-CEM leukemia; 37.8 µM in the assay on SF-539 CNS. Further, the TGI in the assay on T-47D breast is 39.4 µM; in the assay with NCI-H460 lung it was 32.2 µM; with SR leukemia, above 100 µM.

Regarding `Cc1ccc(S(=O)(=O)N(CC(O)COc2ccccc2)c2c(F)c(F)cc(F)c2F)cc1` (stereo not given), the TGI in the assay on U251 CNS was determined as 48.8 µM; in the assay on HOP-62 NSCLC, 52.6 µM; in the assay with HS 578T breast, 50.8 µM; in the assay on MDA-MB-435, 36.5 µM; in the assay with CCRF-CEM leukemia, 93.6 µM; in the assay with SF-539 CNS, 36 µM. Moreover, the TGI in the assay with T-47D breast was determined as 78.3 µM; in the assay with NCI-H460 lung, 35.3 µM; in the assay with SR leukemia, 28.5 µM.

For the compound `Cc1sc2c(c1C)C(=O)c1cccn1-2`, the TGI in the assay on K-562 leukemia, with U251 CNS, in the assay on HOP-62 NSCLC, in the assay with HS 578T breast, in the assay with MDA-MB-435 and with CCRF-CEM leukemia was above 100 µM throughout. Moreover, the TGI in the assay on T-47D breast, in the assay with NCI-H460 lung and with SR leukemia was above 100 µM in each case.

With `C=CCn1c(-c2cc(C(C)(C)C)c(O)c(C(C)(C)C)c2)cs/c1=N\C(P(=O)(O)O)P(=O)(O)O`, the TGI in the assay on K-562 leukemia, in the assay with U251 CNS, in the assay on HOP-62 NSCLC, in the assay with HS 578T breast, in the assay on MDA-MB-435 and in the assay with SF-539 CNS was above 100 µM each time. Also, the TGI with T-47D breast, in the assay on NCI-H460 lung and with SR leukemia was above 100 µM each time.

As to `O=c1oc2ccc([N+](=O)[O-])cc2nc1/C=C(\O)c1ccccc1`, the TGI in the assay on K-562 leukemia, with U251 CNS, with HOP-62 NSCLC, with HS 578T breast, in the assay on MDA-MB-435 and with CCRF-CEM leukemia was above 100 µM each time. The TGI with T-47D breast, in the assay with NCI-H460 lung and in the assay with SR leukemia was above 100 µM in each case.

For the compound `N=c1c2sc3nc4ccccc4n3c2ncn1Cc1ccccc1`, the TGI with U251 CNS, with HOP-62 NSCLC, in the assay on HS 578T breast, with MDA-MB-435, in the assay with CCRF-CEM leukemia and with SF-539 CNS was above 100 µM in each case. The TGI in the assay with T-47D breast and in the assay with SR leukemia was above 100 µM in each case.

For `CN(C)c1ccc(/C=C/C(=O)c2cc(C(C)(C)C)c(O)c(C(C)(C)C)c2)cc1`, the TGI in the assay with K-562 leukemia was above 100 µM; in the assay with U251 CNS, 5.79 µM; with HOP-62 NSCLC it was above 100 µM; with HS 578T breast it was above 100 µM; in the assay on MDA-MB-435, 1.87 µM; with CCRF-CEM leukemia, above 25.7 µM. For the same compound, the TGI in the assay on SF-539 CNS was 1.8 µM; in the assay with T-47D breast it was above 100 µM; in the assay with NCI-H460 lung, 2.39 µM.

On to `CN1C(=O)N(C)C2(CCN(CC(CC3OCCO3)c3ccc(F)cc3)CC2)C1=O` (stereo not given), for which the TGI in the assay on K-562 leukemia, in the assay on U251 CNS, in the assay with HOP-62 NSCLC, in the assay with HS 578T breast, with MDA-MB-435 and in the assay with CCRF-CEM leukemia was above 100 µM in each case. Also, the TGI in the assay with SF-539 CNS, in the assay with T-47D breast and with SR leukemia was above 100 µM in each case.

On to `Cc1c(C)c2c(c(C)c1OC(=O)CCC(=O)[O-])CCC(C)(CCCCCCCCCCC[P+](c1ccccc1)(c1ccccc1)c1ccccc1)O2` (stereo not given), for which the GI50 is 0.182 µM in the assay on K-562 leukemia; 0.18 µM in the assay on HS 578T breast; 0.179 µM in the assay with MDA-MB-435; 0.226 µM in the assay with CCRF-CEM leukemia; 0.185 µM in the assay on SF-539 CNS; 0.124 µM with T-47D breast. Moreover, in the assay with SR leukemia, the GI50 is 0.261 µM. The TGI came to 50 µM in the assay on K-562 leukemia; 1.31 µM with HS 578T breast; 0.67 µM in the assay on MDA-MB-435; 1.31 µM with CCRF-CEM leukemia; 0.721 µM in the assay with SF-539 CNS; 0.966 µM in the assay with T-47D breast. The compound further came in with a TGI in the assay with SR leukemia of 9.05 µM.

In the case of `COc1cccc(N/C(C)=C2/CCOC2=O)c1`, the TGI in the assay on U251 CNS, in the assay on HOP-62 NSCLC, with HS 578T breast, with MDA-MB-435, in the assay with CCRF-CEM leukemia and in the assay with SF-539 CNS was above 10 µM throughout. The TGI in the assay on T-47D breast, in the assay with NCI-H460 lung and in the assay with SR leukemia was above 10 µM in each case.
